Laboratory results: ChEMBL document CHEMBL4680270, “Synthesis and biological evaluation of novel pyrazoline derivatives containing indole skeleton as anti-cancer agents targeting topoisomerase II” (Eur J Med Chem, 2020)
Calls of active or inactive are those of the source. The rule behind the calls is not given here.

Legend:
[1] = system: MCF7; test: Antiproliferative activity against human MCF7 cells assessed as reduction in cell growth incubated for 48 hrs by MTT assay; type: functional, cell-based; details: MCF7, 48 h
[2] = system: HeLa; test: Antiproliferative activity against human HeLa cells assessed as reduction in cell growth incubated for 48 hrs by MTT assay; type: functional, cell-based
[3] = system: MGC-803; test: Antiproliferative activity against human MGC-803 cells assessed as reduction in cell growth incubated for 48 hrs by MTT assay; type: functional, cell-based; details: MGC-803, 48 h
[4] = system: BEL-7404 tumor cell line; test: Antiproliferative activity against human Bel-7404 tumor cell line assessed as reduction in cell growth incubated for 48 hrs by MTT assay; type: functional, cell-based; details: BEL-7404, 48 h
[5] = Cytotoxicity against […] tumor cell line assessed as reduction in cell viability incubated for 48 hrs by MTT assay; details: L929, 48 h
[6] = molecular target: T1, DNA topoisomerase 1 (Homo sapiens) (UniProt P11387); test: Inhibition of human topoisomerase 1 assessed as decrease in relaxation of supercoiled pBR322 plasmid DNA at 100 uM using pBR322 plasmid DNA as substrate incubated for 30 mins by agarose gel electrophoresis
T1 sequence (whole entry): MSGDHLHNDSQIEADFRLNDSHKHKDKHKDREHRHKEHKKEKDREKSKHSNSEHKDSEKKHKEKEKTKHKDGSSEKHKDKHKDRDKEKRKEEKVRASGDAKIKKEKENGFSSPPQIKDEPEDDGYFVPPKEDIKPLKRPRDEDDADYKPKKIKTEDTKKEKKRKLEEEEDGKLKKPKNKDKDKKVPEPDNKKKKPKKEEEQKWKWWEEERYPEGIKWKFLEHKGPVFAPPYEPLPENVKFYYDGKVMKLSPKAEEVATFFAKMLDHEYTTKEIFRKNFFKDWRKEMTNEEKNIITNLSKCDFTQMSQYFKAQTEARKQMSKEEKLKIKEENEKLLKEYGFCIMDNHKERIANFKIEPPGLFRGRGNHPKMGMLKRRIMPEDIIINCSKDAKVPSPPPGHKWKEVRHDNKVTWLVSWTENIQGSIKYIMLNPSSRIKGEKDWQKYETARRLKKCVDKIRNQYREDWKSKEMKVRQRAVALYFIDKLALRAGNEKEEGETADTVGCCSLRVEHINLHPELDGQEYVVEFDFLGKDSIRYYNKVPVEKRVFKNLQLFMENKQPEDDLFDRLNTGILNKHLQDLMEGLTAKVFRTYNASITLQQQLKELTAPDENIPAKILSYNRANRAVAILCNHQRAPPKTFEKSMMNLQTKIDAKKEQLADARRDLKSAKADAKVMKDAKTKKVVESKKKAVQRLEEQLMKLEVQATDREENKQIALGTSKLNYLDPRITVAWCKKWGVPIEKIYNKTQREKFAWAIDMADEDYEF

[7] = system: MGC-803; test: Inhibition of topoisomerase 2 purified from human MGC-803 cells assessed as decrease in relaxation of supercoiled pBR322 plasmid DNA at 100 uM using pBR322 plasmid DNA as substrate incubated for 30 mins by agarose gel electrophoresis; type: cell-free
[8] = system: MGC-803; test: Inhibition of topoisomerase 2 purified from human MGC-803 cells assessed as decrease in relaxation of supercoiled pBR322 plasmid DNA at 20 uM using pBR322 plasmid DNA as substrate incubated for 30 mins by agarose gel electrophoresis; type: cell-free
[9] = molecular target: DNA topoisomerase 2-alpha (Homo sapiens) (UniProt P11388); test: Poison activity at human topoisomerase 2alpha assessed as DNA cleavage by measuring linear DNA formation at 100 to 300 uM using supercoiled pBR322 DNA as substrate incubated for 30 mins by agarose gel electrophoresis method; details: dose 100-300 µM
Chain of DNA topoisomerase 2-alpha (Homo sapiens) (P11388 whole entry): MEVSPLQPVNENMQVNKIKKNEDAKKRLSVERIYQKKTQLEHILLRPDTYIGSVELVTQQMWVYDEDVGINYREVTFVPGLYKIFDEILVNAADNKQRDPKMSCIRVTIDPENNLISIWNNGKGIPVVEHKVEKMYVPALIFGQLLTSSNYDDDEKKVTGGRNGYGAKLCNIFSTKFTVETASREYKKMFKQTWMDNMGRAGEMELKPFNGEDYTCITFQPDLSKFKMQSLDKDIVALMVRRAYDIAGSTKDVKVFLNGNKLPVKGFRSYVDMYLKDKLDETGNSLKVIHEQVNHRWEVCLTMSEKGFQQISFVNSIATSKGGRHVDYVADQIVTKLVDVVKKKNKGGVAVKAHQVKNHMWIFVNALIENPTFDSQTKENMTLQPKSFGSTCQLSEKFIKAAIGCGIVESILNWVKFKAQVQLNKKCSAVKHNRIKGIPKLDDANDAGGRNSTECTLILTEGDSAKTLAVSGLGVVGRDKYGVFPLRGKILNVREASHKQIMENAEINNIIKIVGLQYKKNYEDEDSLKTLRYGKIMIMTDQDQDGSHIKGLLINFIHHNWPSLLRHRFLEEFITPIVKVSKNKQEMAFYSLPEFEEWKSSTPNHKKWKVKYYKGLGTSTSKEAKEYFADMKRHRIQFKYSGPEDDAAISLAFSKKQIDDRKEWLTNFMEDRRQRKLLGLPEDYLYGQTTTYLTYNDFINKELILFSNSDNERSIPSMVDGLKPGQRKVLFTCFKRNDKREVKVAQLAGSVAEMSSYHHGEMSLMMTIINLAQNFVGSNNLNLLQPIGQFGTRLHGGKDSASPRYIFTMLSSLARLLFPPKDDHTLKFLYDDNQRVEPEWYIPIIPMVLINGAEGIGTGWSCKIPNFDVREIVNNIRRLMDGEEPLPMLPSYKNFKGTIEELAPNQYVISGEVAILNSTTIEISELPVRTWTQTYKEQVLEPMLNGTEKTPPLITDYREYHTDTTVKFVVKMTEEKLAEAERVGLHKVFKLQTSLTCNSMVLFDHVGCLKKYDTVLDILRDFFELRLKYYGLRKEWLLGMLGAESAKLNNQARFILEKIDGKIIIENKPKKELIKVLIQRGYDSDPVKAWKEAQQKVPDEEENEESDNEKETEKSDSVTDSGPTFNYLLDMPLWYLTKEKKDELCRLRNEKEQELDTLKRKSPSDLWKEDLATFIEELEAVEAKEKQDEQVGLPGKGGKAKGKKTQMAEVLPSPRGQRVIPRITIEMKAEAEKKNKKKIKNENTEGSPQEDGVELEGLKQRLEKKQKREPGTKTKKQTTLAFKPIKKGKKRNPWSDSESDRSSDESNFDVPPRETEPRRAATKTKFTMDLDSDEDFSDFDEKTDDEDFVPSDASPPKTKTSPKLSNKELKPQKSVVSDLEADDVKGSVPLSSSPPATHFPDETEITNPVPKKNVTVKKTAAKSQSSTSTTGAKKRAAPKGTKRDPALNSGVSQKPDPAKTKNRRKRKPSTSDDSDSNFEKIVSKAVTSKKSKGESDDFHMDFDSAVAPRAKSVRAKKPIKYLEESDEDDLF

[10] = species on record: Homo sapiens; test: Inhibition of human topoisomerase 2 assessed as EtBr intercalation into plasmid DNA by converting relaxed DNA into supercoiled DNA at 100 to 300 uM incubated for 30 mins by agarose gel electrophoresis method; details: dose 100-300 µM
[11] = system: MGC-803; test: Induction of apoptosis in human MGC-803 cells assessed as viable cells at 10 uM incubated for 48 hrs by annexin V-FITC and PI staining based flow cytometry analysis (reference value: 94.47 %); type: functional; details: read-out: Activity
[12] = system: MGC-803; test: Induction of apoptosis in human MGC-803 cells assessed as early apoptotic cells at 10 uM incubated for 48 hrs by annexin V-FITC and PI staining based flow cytometry analysis (reference value: 2.54 %); type: functional
[13] = system: MGC-803; test: Induction of apoptosis in human MGC-803 cells assessed as late apoptotic cells at 10 uM incubated for 48 hrs by annexin V-FITC and PI staining based flow cytometry analysis (reference value: 2.96 %); type: functional
[14] = system: MGC-803; test: Induction of apoptosis in human MGC-803 cells assessed as necrotic cells at 10 uM incubated for 48 hrs by annexin V-FITC and PI staining based flow cytometry analysis (reference value: 0.03 %); type: functional
[15] = system: MGC-803; test: Induction of apoptosis in human MGC-803 cells assessed as viable cells at 20 uM incubated for 48 hrs by annexin V-FITC and PI staining based flow cytometry analysis (reference value: 94.47 %); type: functional; details: read-out: Activity
[16] = system: MGC-803; test: Induction of apoptosis in human MGC-803 cells assessed as early apoptotic cells at 20 uM incubated for 48 hrs by annexin V-FITC and PI staining based flow cytometry analysis (reference value: 2.54 %); type: functional
[17] = system: MGC-803; test: Induction of apoptosis in human MGC-803 cells assessed as late apoptotic cells at 20 uM incubated for 48 hrs by annexin V-FITC and PI staining based flow cytometry analysis (reference value: 2.96 %); type: functional
[18] = system: MGC-803; test: Induction of apoptosis in human MGC-803 cells assessed as necrotic cells at 20 uM incubated for 48 hrs by annexin V-FITC and PI staining based flow cytometry analysis (reference value: 0.03 %); type: functional
[19] = system: MGC-803; test: Induction of cell cycle arrest in human MGC-803 cells assessed as G0/G1 phase at 10 uM incubated for 48 hrs by PI staining based flow cytometry analysis (reference value: 47.6 %); type: functional
[20] = system: MGC-803; test: Induction of cell cycle arrest in human MGC-803 cells assessed as S phase at 10 uM incubated for 48 hrs by PI staining based flow cytometry analysis (reference value: 43.6 %); type: functional
[21] = system: MGC-803; test: Induction of cell cycle arrest in human MGC-803 cells assessed as G2/M phase at 10 uM incubated for 48 hrs by PI staining based flow cytometry analysis (reference value: 8.8 %); type: functional
[22] = Drug uptake in human MGC-803 cells at 10 uM incubated for 8 hrs by laser scanning confocal microscope; type: ADME, cell-based; details: mgc-803, 8 h

Compound | IC50 [1] [µM] | IC50 [2] [µM] | IC50 [3] [µM] | IC50 [4] [µM] | IC50 [5] [µM] | inhibition [6] | inhibition [7] | inhibition [8] | other results
Clc1cc2c(cc1Cl)C1=NN(c3ccccc3)C(c3c[nH]c4ccccc34)C1CS2 (stereo unspecified) | 72.8 | 27.4 | 27.1 | > 120 | 164 | inactive | Active | Active | –
Cc1cc2c(cc1F)C1=NN(c3ccccc3)C(c3c[nH]c4ccccc34)C1CS2 (stereo unspecified) | 47.8 | 41.1 | 27.8 | 61.9 | 150 | inactive | Active | – | –
Cc1cccc2c1SCC1C2=NN(c2ccccc2)C1c1c[nH]c2ccccc12 (stereo unspecified) | 38 | 37 | 28 | 57.3 | 189 | inactive | Active | – | –
Clc1ccc2c(c1)C1=NN(c3ccccc3)C(c3c[nH]c4ccc(Br)cc34)C1CS2 (stereo unspecified) | 37.1 | 35.1 | 29.3 | 32.1 | 154 | inactive | – | – | –
Cc1ccc(C)c2c1SCC1C2=NN(c2ccccc2)C1c1c[nH]c2ccccc12 (stereo unspecified) | 37.7 | 39.7 | 35.6 | 37.5 | 183 | inactive | Active | Active | –
COc1ccc2c(c1)C1=NN(c3ccccc3)C(c3c[nH]c4ccccc34)C1CS2 (stereo unspecified) | > 120 | > 120 | 36.4 | > 120 | 120 | inactive | Active | – | –
Clc1cc(Cl)c2c(c1)C1=NN(c3ccccc3)C(c3c[nH]c4ccccc34)C1CS2 (stereo unspecified) | 25.6 | 25 | 20.5 | 21 | 105 | inactive | Active | Active | inhibition [9]: inactive; inhibition [10]: inactive; viability at 10 µM [11]: 89.6%; Activity [12]: 4.92%; Activity [13]: 4.99%; Activity [14]: 0.5%; viability at 20 µM [15]: 49.2%; Activity [16]: 12.17%; Activity [17]: 36.06%; Activity [18]: 2.54%; Activity [19]: 49.7%; Activity [20]: 25.4%; Activity [21]: 24.9%; Drug uptake [22]: Active
Fc1ccc2c(c1)C1=NN(c3ccccc3)C(c3c[nH]c4ccccc34)C1CS2 (stereo unspecified) | 37.8 | 50 | 39.3 | 50.2 | 175 | inactive | Active | Active | –
Cc1ccc2c(c1)C1=NN(c3ccccc3)C(c3c[nH]c4ccccc34)C1CS2 (stereo unspecified) | 68 | 36.4 | 21.9 | > 120 | 158 | inactive | Active | Active | –
Cn1cc(C2C3CSc4ccc(Cl)cc4C3=NN2c2ccccc2)c2ccccc21 (stereo unspecified) | 51.1 | 48.7 | 33.1 | 36.2 | 262 | inactive | – | – | –
Clc1ccc2c(c1)C1=NN(c3ccccc3)C(c3c[nH]c4ccccc34)C1CS2 (stereo unspecified) | 26.1 | 38.2 | 15.4 | 42.9 | 160 | inactive | Active | Active | viability at 10 µM [11]: 69.9%; Activity [12]: 12.32%; Activity [13]: 17.02%; Activity [14]: 0.73%; viability at 20 µM [15]: 36.9%; Activity [16]: 8.17%; Activity [17]: 52.74%; Activity [18]: 2.18%; Activity [19]: 38.1%; Activity [20]: 25.3%; Activity [21]: 36.6%; Drug uptake [22]: Active
Cc1cc(C)c2c(c1)C1=NN(c3ccccc3)C(c3c[nH]c4ccccc34)C1CS2 (stereo unspecified) | 27 | 29.2 | 26.5 | 23.7 | 134 | inactive | – | – | –
COc1cc([C@@H]2c3cc4c(cc3[C@@H](O[C@@H]3O[C@@H]5CO[C@@H](C)O[C@H]5[C@H](O)[C@H]3O)[C@H]3COC(=O)[C@H]23)OCO4)cc(OC)c1O [ETOPOSIDE] | 1.45 | 5.35 | 11.2 | 7.76 | 80.4 | – | – | – | –
Fc1cccc2c1SCC1C2=NN(c2ccccc2)C1c1c[nH]c2ccccc12 (stereo unspecified) | 35.7 | 31.6 | 31.1 | 36.2 | 158 | inactive | Active | Active | –
